Test results: patent US20260070945A1, “MACROCYCLIC IMMUNOMODULATORS” (Bristol-Myers Squibb Company, priority 2022, published 2026)
Where a SMILES comes first, the peptide text is derived from it. Bridges are numbered along the chain shown (N, C = ends). [ ]: non-standard residue; d: D form. The star is where a group is joined. ξ: configuration not given here. Phe(3-CF3) = N[C@@H](Cc1cccc(C(F)(F)F)c1)C(=O)O; Phe(4-CF3) = N[C@@H](Cc1ccc(C(F)(F)F)cc1)C(=O)O; Phe(4-COOH) = N[C@@H](Cc1ccc(C(=O)O)cc1)C(=O)O; Bip = N[C@@H](Cc1ccc(-c2ccccc2)cc1)C(=O)O; NH(CH2)14COOH = O=C(O)CCCCCCCCCCCCCCN*; Phe(3-Me) = Cc1cccc(C[C@H](N)C(=O)O)c1; Val(3-OH) = CC(C)(O)[C@H](N)C(=O)O; Cha = N[C@@H](CC1CCCCC1)C(=O)O; Thr(3ξ) = CC(O)[C@H](N)C(=O)O; Carboxymethyl = O=C(O)C*; NMeA = CN[C@@H](C)C(=O)O; Aun = NCCCCCCCCCCC(=O)O; Dab = NCC[C@H](N)C(=O)O; Nva = CCC[C@H](N)C(=O)O; AEEA = NCCOCCOCC(=O)O

Biological target: T1, PD-1/PD-L1 interaction (PE-labeled human PD-L1-Ig binding to Jurkat cell line over-expressing human PD-1) (Homo sapiens, UniProt Q15116)
T1 construct: expressed in transfected cells; host or cells: Jurkat
Experiment: Jurkat-PD-1 Cell Binding High-Content Screening Assay (CBA)
Details: PE-labeled PD-L1-Ig 20 nM final, Jurkat-hPD-1 cells; read-out: Jurkat HPD1 PDL1 IC50
Summary of the method: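 Jurkat cells overexpressing human PD-1 (8×10^3/well, DMEM + 10% FCS) preincubated with compound 2 h at 37 °C, then PE-labelled human PD-L1-Ig (20 nM final) for 1 h. Cells fixed in paraformaldehyde with Hoechst 33342; bound PD-L1 quantified by high-content imaging.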

T1 sequence (Q15116 25-288): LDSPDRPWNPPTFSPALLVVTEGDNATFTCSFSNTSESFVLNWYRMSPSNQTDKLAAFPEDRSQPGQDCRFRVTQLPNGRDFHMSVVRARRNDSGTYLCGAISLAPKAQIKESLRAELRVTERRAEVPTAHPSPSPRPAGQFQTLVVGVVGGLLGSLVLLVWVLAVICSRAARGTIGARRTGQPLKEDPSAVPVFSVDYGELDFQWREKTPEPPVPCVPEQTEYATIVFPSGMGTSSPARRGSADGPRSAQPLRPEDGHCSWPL

IC50	Structure (SMILES)
11.5 nM	CC(C)C[C@H]1NC(=O)[C@H](C)N(C)C(=O)[C@H](Cc2ccc(C(=O)O)cc2)NC(=O)[C@H](Cc2ccc(-c3ccccc3)cc2)NC(=O)[C@H](Cc2ccc(C(=O)O)cc2)NC(=O)[C@H](Cc2cccc(C(F)(F)F)c2)NC(=O)[C@H](CC(=O)O)NC(=O)[C@H](Cc2ccc(C(=O)O)cc2)NC(=O)[C@H](C(C)O)NC(=O)CSC[C@@H](C(=O)N[C@@H](CCN)C(=O)NCCCCCCCCCCC(=O)O)NC(=O)[C@H](CCC(=O)O)NC(=O)[C@H](C(C)C)NC(=O)[C@H](CC2CCCCC2)NC(=O)[C@H](CCN)NC1=O (stereo partly drawn) [Example 2572] ({CH2CO}-[Thr(3ξ)][Phe(4-COOH)]D[Phe(3-CF3)][Phe(4-COOH)][Bip][Phe(4-COOH)][NMeA][dL][Dab][Cha]VEC[Dab][Aun]-OH; thioether N-14)
9.7 nM	CC(C)C[C@H]1NC(=O)[C@H](C)N(C)C(=O)[C@H](Cc2ccc(C(=O)O)cc2)NC(=O)[C@H](Cc2ccc(-c3ccccc3)cc2)NC(=O)[C@H](Cc2ccc(C(=O)O)cc2)NC(=O)[C@H](Cc2cccc(C(F)(F)F)c2)NC(=O)[C@H](CC(=O)O)NC(=O)[C@H](Cc2ccc(C(=O)O)cc2)NC(=O)[C@H](C(C)O)NC(=O)CSC[C@@H](C(=O)N[C@@H](CCN)C(=O)NCCCCCCCCCCC(=O)O)NC(=O)[C@H](C(C)O)NC(=O)[C@H](C(C)(C)O)NC(=O)[C@H](CC2CCCCC2)NC(=O)[C@H](CCN)NC1=O (stereo partly drawn) [Example 2573] ({CH2CO}-[Thr(3ξ)][Phe(4-COOH)]D[Phe(3-CF3)][Phe(4-COOH)][Bip][Phe(4-COOH)][NMeA][dL][Dab][Cha][Val(3-OH)][Thr(3ξ)]C[Dab][Aun]-OH; thioether N-14)
4.4 nM	CC(C)C[C@H]1NC(=O)[C@H](C)N(C)C(=O)[C@H](Cc2ccc(OCC(=O)O)cc2)NC(=O)[C@H](Cc2ccc(-c3ccccc3)cc2)NC(=O)[C@H](Cc2ccc(C(=O)O)cc2)NC(=O)[C@H](Cc2cccc(C(F)(F)F)c2)NC(=O)[C@H](CC(=O)O)NC(=O)[C@H](Cc2ccc(OCC(=O)O)cc2)NC(=O)[C@H](C(C)O)NC(=O)CSC[C@@H](C(=O)N[C@@H](CCN)C(=O)NCCCCCCCCCCC(=O)O)NC(=O)[C@H](CCC(=O)O)NC(=O)[C@H](C(C)C)NC(=O)[C@H](CC2CCCCC2)NC(=O)[C@H](CCN)NC1=O (stereo partly drawn) [Example 2574] ({CH2CO}-[Thr(3ξ)]Y(Carboxymethyl)D[Phe(3-CF3)][Phe(4-COOH)][Bip]Y(Carboxymethyl)[NMeA][dL][Dab][Cha]VEC[Dab][Aun]-OH; thioether N-14)
29.6 nM	CC(C)C[C@H]1NC(=O)[C@H](C)N(C)C(=O)[C@H](Cc2ccc(OCC(=O)O)cc2)NC(=O)[C@H](Cc2ccc(-c3ccccc3)cc2)NC(=O)[C@H](Cc2ccc(C(=O)O)cc2)NC(=O)[C@H](Cc2cccc(C(F)(F)F)c2)NC(=O)[C@H](CC(=O)O)NC(=O)[C@H](Cc2ccc(OCC(=O)O)cc2)NC(=O)[C@H](C(C)O)NC(=O)CSC[C@@H](C(=O)N[C@@H](CCN)C(=O)NCCCCCCCCCCC(=O)O)NC(=O)[C@H](CO)NC(=O)[C@H](C(C)(C)O)NC(=O)[C@H](CC2CCCCC2)NC(=O)[C@H](Cc2cnc[nH]2)NC1=O (stereo partly drawn) [Example 2575] ({CH2CO}-[Thr(3ξ)]Y(Carboxymethyl)D[Phe(3-CF3)][Phe(4-COOH)][Bip]Y(Carboxymethyl)[NMeA][dL]H[Cha][Val(3-OH)]SC[Dab][Aun]-OH; thioether N-14)
103 nM	CC(=O)NCCCC[C@@H]1NC(=O)[C@H](C(C)(C)O)NC(=O)[C@H](CC2CCCCC2)NC(=O)[C@H](CCN)NC(=O)[C@@H](CC(C)C)NC(=O)[C@H](C)N(C)C(=O)[C@H](CCC(N)=O)NC(=O)[C@H](Cc2ccc(-c3ccccc3)cc2)NC(=O)[C@H](Cc2ccc(C(=O)O)cc2)NC(=O)[C@H](Cc2cccc(C)c2)NC(=O)[C@H](CC(=O)O)NC(=O)[C@H](Cc2ccc(OCC(=O)O)cc2)NC(=O)[C@H](Cc2ccc(OCC(=O)O)cc2)NC(=O)CSC[C@@H](C(=O)N[C@@H](CCN)C(=O)NCCOCCOCC(=O)NCCCCCCCCCCCCCCC(=O)O)NC1=O [Example 2576] ({CH2CO}-Y(Carboxymethyl)Y(Carboxymethyl)D[Phe(3-Me)][Phe(4-COOH)][Bip]Q[NMeA][dL][Dab][Cha][Val(3-OH)]K(Ac)C[Dab][AEEA]-{NH(CH2)14COOH}; thioether N-14)
46.9 nM	CC(=O)NCCCC[C@@H]1NC(=O)[C@H](C(C)(C)O)NC(=O)[C@H](CC2CCCCC2)NC(=O)[C@H](CCN)NC(=O)[C@@H](CC(C)C)NC(=O)[C@H](C)N(C)C(=O)[C@H](CCC(N)=O)NC(=O)[C@H](Cc2ccc(-c3ccccc3)cc2)NC(=O)[C@H](Cc2ccc(C(=O)O)cc2)NC(=O)[C@H](Cc2cccc(C)c2)NC(=O)[C@H](CC(=O)O)NC(=O)[C@H](Cc2ccc(OCC(=O)O)cc2)NC(=O)[C@H](Cc2ccc(OCC(=O)O)cc2)NC(=O)CSC[C@@H](C(=O)N[C@@H](CCN)C(=O)NCCOCCOCC(=O)N[C@@H](CCC(=O)NCCCCCCCCCCCCCCC(=O)O)C(=O)O)NC1=O [Example 2577] ({CH2CO}-Y(Carboxymethyl)Y(Carboxymethyl)D[Phe(3-Me)][Phe(4-COOH)][Bip]Q[NMeA][dL][Dab][Cha][Val(3-OH)]K(Ac)C[Dab][AEEA]E(NH(CH2)14COOH)-OH; thioether N-14)
22.2 nM	Cc1cccc(C[C@@H]2NC(=O)[C@H](CC(=O)O)NC(=O)[C@H](Cc3ccc(OCC(=O)O)cc3)NC(=O)[C@H](Cc3ccc(C(F)(F)F)cc3)NC(=O)CSC[C@@H](C(=O)N[C@@H](CCN)C(=O)NCCOCCOCC(=O)NCCCCCCCCCCC(=O)O)NC(=O)[C@H](CCC(=O)O)NC(=O)[C@H](C(C)C)NC(=O)[C@H](CC3CCCCC3)NC(=O)[C@H](CCN)NC(=O)[C@@H](CC(C)C)NC(=O)[C@H](C)N(C)C(=O)[C@H](Cc3ccc(C(=O)O)cc3)NC(=O)[C@H](Cc3ccc(-c4ccccc4)cc3)NC(=O)[C@H](Cc3ccc(C(=O)O)cc3)NC2=O)c1 [Example 2578] ({CH2CO}-[Phe(4-CF3)]Y(Carboxymethyl)D[Phe(3-Me)][Phe(4-COOH)][Bip][Phe(4-COOH)][NMeA][dL][Dab][Cha]VEC[Dab][AEEA][Aun]-OH; thioether N-14)
2.6 nM	CC(=O)NCCCC[C@@H]1NC(=O)[C@H](C(C)(C)O)NC(=O)[C@H](CC2CCCCC2)NC(=O)[C@H](CCN)NC(=O)[C@@H](CC(C)C)NC(=O)[C@H](C)N(C)C(=O)[C@H](CCC(N)=O)NC(=O)[C@H](Cc2ccc(-c3ccccc3)cc2)NC(=O)[C@H](Cc2ccc(C(=O)O)cc2)NC(=O)[C@H](Cc2cccc(C(F)(F)F)c2)NC(=O)[C@H](CC(=O)O)NC(=O)[C@H](Cc2ccc(OCC(=O)O)cc2)NC(=O)[C@H](Cc2ccc(OCC(=O)O)cc2)NC(=O)CSC[C@@H](C(=O)N[C@@H](CCN)C(=O)NCCOCCOCC(=O)NCCCCCCCCCCC(=O)O)NC1=O [Example 2579] ({CH2CO}-Y(Carboxymethyl)Y(Carboxymethyl)D[Phe(3-CF3)][Phe(4-COOH)][Bip]Q[NMeA][dL][Dab][Cha][Val(3-OH)]K(Ac)C[Dab][AEEA][Aun]-OH; thioether N-14)
9.2 nM	CC(C)C[C@H]1NC(=O)[C@H](C)N(C)C(=O)[C@H](Cc2ccc(OCC(=O)O)cc2)NC(=O)[C@H](Cc2ccc(-c3ccccc3)cc2)NC(=O)[C@H](Cc2ccc(C(=O)O)cc2)NC(=O)[C@H](Cc2cccc(C(F)(F)F)c2)NC(=O)[C@H](CC(=O)O)NC(=O)[C@H](Cc2ccc(OCC(=O)O)cc2)NC(=O)[C@H](Cc2cnc[nH]2)NC(=O)CSC[C@@H](C(=O)N[C@@H](CCN)C(=O)NCCCCCCCCCCC(=O)O)NC(=O)[C@H](CCC(=O)O)NC(=O)[C@H](C(C)C)NC(=O)[C@H](CC2CCCCC2)NC(=O)[C@H](CCN)NC1=O [Example 2581] ({CH2CO}-HY(Carboxymethyl)D[Phe(3-CF3)][Phe(4-COOH)][Bip]Y(Carboxymethyl)[NMeA][dL][Dab][Cha]VEC[Dab][Aun]-OH; thioether N-14)
21.3 nM	Cc1cccc(C[C@@H]2NC(=O)[C@H](CC(=O)O)NC(=O)[C@H](Cc3ccc(C(=O)O)cc3)NC(=O)[C@H](C)NC(=O)CSC[C@@H](C(=O)N[C@@H](CCN)C(=O)NCCCCCCCCCCC(=O)O)NC(=O)[C@H](C(C)O)NC(=O)[C@H](C(C)C)NC(=O)[C@H](CC3CCCCC3)NC(=O)[C@H](CCN)NC(=O)[C@@H](CC(C)C)NC(=O)[C@H](C)N(C)C(=O)[C@H](Cc3ccc(C(=O)O)cc3)NC(=O)[C@H](Cc3ccc(-c4ccccc4)cc3)NC(=O)[C@H](Cc3ccc(C(F)(F)F)cc3)NC2=O)c1 (stereo partly drawn) [Example 2582] ({CH2CO}-A[Phe(4-COOH)]D[Phe(3-Me)][Phe(4-CF3)][Bip][Phe(4-COOH)][NMeA][dL][Dab][Cha]V[Thr(3ξ)]C[Dab][Aun]-OH; thioether N-14)
37.5 nM	CCC[C@@H]1NC(=O)[C@H](C(C)(C)O)NC(=O)[C@H](CC2CCCCC2)NC(=O)[C@H](CCN)NC(=O)[C@@H](CC(C)C)NC(=O)[C@H](C)N(C)C(=O)[C@H](Cc2ccc(C(=O)O)cc2)NC(=O)[C@H](Cc2ccc(-c3ccccc3)cc2)NC(=O)[C@H](Cc2ccc(C(=O)O)cc2)NC(=O)[C@H](Cc2cccc(C)c2)NC(=O)[C@H](CC(=O)O)NC(=O)[C@H](Cc2ccc(C(=O)O)cc2)NC(=O)[C@H](Cc2ccc(C(F)(F)F)cc2)NC(=O)CSC[C@@H](C(=O)N[C@@H](CCN)C(=O)NCCCCCCCCCCC(=O)O)NC1=O [Example 2583] ({CH2CO}-[Phe(4-CF3)][Phe(4-COOH)]D[Phe(3-Me)][Phe(4-COOH)][Bip][Phe(4-COOH)][NMeA][dL][Dab][Cha][Val(3-OH)][Nva]C[Dab][Aun]-OH; thioether N-14)

Structure (SMILES)	IC50
CC(C)C[C@H]1NC(=O)[C@H](C)N(C)C(=O)[C@H](Cc2ccc(OCC(=O)O)cc2)NC(=O)[C@H](Cc2ccc(-c3ccccc3)cc2)NC(=O)[C@H](Cc2ccc(C(=O)O)cc2)NC(=O)[C@H](Cc2cccc(C(F)(F)F)c2)NC(=O)[C@H](CC(=O)O)NC(=O)[C@H](Cc2ccc(OCC(=O)O)cc2)NC(=O)[C@H](Cc2cnc[nH]2)NC(=O)CSC[C@@H](C(=O)N[C@@H](CCN)C(=O)NCCCCCCCCCCC(=O)O)NC(=O)[C@H](C(C)O)NC(=O)[C@H](C(C)C)NC(=O)[C@H](CC2CCCCC2)NC(=O)[C@H](CCN)NC1=O (stereo partly drawn) [Example 2580] ({CH2CO}-HY(Carboxymethyl)D[Phe(3-CF3)][Phe(4-COOH)][Bip]Y(Carboxymethyl)[NMeA][dL][Dab][Cha]V[Thr(3ξ)]C[Dab][Aun]-OH; thioether N-14)	6.8 nM
